Here are results for 3 compounds from patent publication US20260325643A1, “METHOD AND PHARMACEUTICAL COMPOSITION FOR VISIBLE LIGHT-INDUCED CORNEAL CROSSLINKING WITH RUTHENIUM COMPOUNDS FOR THE TREATMENT OF EYE DISORDERS” (KOC UNIVERSITESI, priority 2022, published 2026).

For series [1], the system named is human corneal epithelial cells (HCECs) and limbal mesenchymal stem cells (LMSCs). Nature of the series: Cell viability / cytotoxicity, HCECs and LMSCs taken together. Type of series: cell-based. The note with it: Ruthenium or/and SPS. The source says: Furthermore, the cytotoxic effects of Ruthenium and SPS compound on human corneal epithelial cells (HCECs) and limbal mesenchymal stem cells (LMSCs) were investigated to determine the ruthenium concentration and time needed for the cross-linking process. The relative viabilities of cells were detected by CellTiter-Glo® Luminescent Cell Viability Assay (Promega, Mannheim, Germany) detected the relative viabilities of cells, which is a method used to detect the number of viable cells depending on the amount of ATP in alive cells. […] (FIGS. 3A-3B)

Another series has as its system LMSCs and HCECs. Nature of the series: Annexin V-FITC/PI flow cytometry. Type of series: cell-based, human. The settings on record: 1 hour treatment; compared with ruthenium-SPS treated cells. The protocol: The effects of [Ru(bpy)3]^2+ and SPS solutions on cell viability and apoptosis were examined by Annexin-V/propidium iodide (PI) staining in flow cytometry. LMSCs and HCECs (10^5 cells/well) were plated in 6-well culture dishes. [Ru(bpy)3]^2+ and SPS in various concentrations (1 mM and 10 mM) were added to the cell culture medium. The cells were incubated for 1 hour at 37 °C. After the treatment with the solutions, the cells were collected and washed with PBS at 4 °C. The cells were resuspended in 1× binding buffer at a 1×10^5 cells/ml density. 100 μl of the cell suspension were labeled with 2.5 μl of fluorochrome-conjugated Annexin V and 5 μl of PI according to the manufacturer's protocol (BioLegend, San Diego, CA, USA) and analyzed by using a flow cytometer (Attune N. T Flow Cytometer, Thermo Fisher Scientific, Waltham, MA, USA).
Annexin V-FITC and propidium iodide staining provide sensitive outcomes for detecting cellular apoptosis. While annexin V-FITC binds on the surface of cells that undergo programmed cell death, PI detects necrotic or late apoptotic cells characterized by loss of plasma and nuclear membrane integrity. Cells treated with [Ru(bpy)3]^2+ and/or SPS for 1 hour were harvested after treatment and stained with Annexin V-FITC and PI.

The test system of series [2] is bovine corneas. Nature of the series: Rheological measurements of crosslinked corneas (time sweep). The note with it: 2 mM riboflavin, UV-A 365 nm, after 30 min. How it is done: (§1) For biomechanical experiments, bovine corneas were used. First the corneal epithelia were removed with a scalpel blade and 8 mm central corneal buttons were isolated from bovine eyes with a trephine blade (Katena, Parsippany, NJ, USA). After that, corneal buttons separated into three different experimental groups: • Ruthenium (Ru)-Sodium persulfate (SPS)/visible light, • Riboflavin/UV-A light, and • Control groups.
[Ru(bpy)3]^2+ and SPS solution was prepared in PBS via dissolving Tris(2,2′-bipyridyl)dichlororuthenium(II) hexahydrate (544981, Sigma-Aldrich, MO, USA) and sodium persulfate (216232, Sigma-Aldrich, MO, USA). Ru-SPS solution was prepared in two different concentrations: 0.001 M (1 mM) and 0.0001 M (0.1 mM) was dropped on corneal buttons and the samples were incubated for 5 min for the samples in the Ru-SPS experimental group. Then all solutions were removed, and 430 nm visible light (3 mW/cm^2) was applied to the samples for 40 min. […]
Rheological measurements were carried out in time sweep mode with 1 Hz frequency, 1% strain using TA Instruments AR/DHR series rheometer (New Castle, DE) equipped with two different light sources: visible light ([…]) and UV-A light (λ=365 nm). […] Storage and loss moduli profiles were recorded as a function of time continuously for 40 min at ambient conditions. […]

In series [3] the test system is bovine corneas. Nature of the series: Uniaxial stress-strain test of corneal strips. How it is done: as §1
(§2) [Ru(bpy)3]^2+ and SPS solution was prepared in PBS via dissolving Tris(2,2′-bipyridyl)dichlororuthenium(II) hexahydrate (544981, Sigma-Aldrich, MO, USA) and sodium persulfate (216232, Sigma-Aldrich, MO, USA). Ru-SPS solution was prepared in two different concentrations: 0.001 M (1 mM) and 0.0001 M (0.1 mM) was dropped on corneal buttons and the samples were incubated for 5 min for the samples in the Ru-SPS experimental group. Then all solutions were removed, and 430 nm visible light (3 mW/cm^2) was applied to the samples for 40 min. To mimic the standard CXL corneal collagen crosslinking procedure for the riboflavin experimental group, 0.002 M (2 mM) riboflavin 5′-monophosphate solution (18167, Cayman Chemical, MI, USA) was dropped on corneal buttons and the samples were incubated for 5 min. Then riboflavin solution was removed, and 365 nm visible light (3 mW/cm^2) applied to the cornea samples for 40 min. No solution or light was applied to the corneas in the control group.
The stress-strain test was performed on a full-thickness minus the epithelium corneal strips dissected from the bovine corneas. The mechanical properties of all the samples were determined using force and displacement measurements. The initial cross-sectional area and the corresponding force measurements of each test sample were used to calculate the engineering stress. The maximum displacement at the breakage point of each sample was used to estimate the change in the length of each sample. This change in the length was related nominally to the initial length of the corresponding test sample to calculate the engineering strain. The modulus of elasticity and the ultimate tensile strength of each sample was then estimated by the engineering stress-strain curves. The ultimate tensile strength was defined as the peak value of stress on the stress-strain curve before the breakage point of the sample when being stretched. The linear regression analysis between the zero point and the point that equals 70% of the maximum stress for each sample was used to compute the modulus of elasticity. The modulus of elasticity is a material-dependent property such that it depends upon the internal structure and the bond strength between the atoms of each sample. Therefore, the modulus of elasticity remained similar for one sample type; however, it differed for other sample types. […]

The subject of series [4] is bovine corneas. Nature of the series: Osmotic stress (swelling) test. The settings on record: 15% dextran-500 PBS overnight, then three hours in distilled water. How it is done: as §1
as §2, with “control group. […]” for “control group.”

Series [5] deals with bovine corneas. Nature of the series: Corneal optical transparency and Lambert-Beer penetration distance. The protocol: The standard protocol for corneal crosslinking can only be applied in cases with a corneal thickness above 400 μm. When applied to thinner corneas, UV-A beam reaches the corneal endothelial cells resulting in endothelial toxicity and corneal edema. For this purpose, the Lambert-Beer formula was applied for optical transmittance results of both photoinitiator solutions (FIG. 6C). Corneal light transmittance was then calculated with the Lambert-Beer formula: […]
In this formula, A represents the optical absorbance of the sample, ε represents the molar attenuation coefficient of the photoinitiator, c is the concentration of the photoinitiator, and l is the total optical path length of the light. For these calculations, molar attenuation coefficients for each photoinitiators (10066 M^−1 cm^−1 for riboflavin and 14,600 M^−1 cm^−1 for tris(2,2′-bipyridyl)ruthenium(II)) obtained from previous literature.[15, 16] […]
Corneal optical transparencies were measured in corresponding light wavelengths for each experimental group. For the 2 mM riboflavin-based crosslinked corneas, average optical transparency in 365 nm was measured as 0.713±0.222. In the same conditions, the average optical transparency for 1 mM ruthenium-based crosslinked corneas was measured as 0.724±0.050 in 430 nm light wavelength, which is correlated with the riboflavin-based CXL procedure. […]

In series [6] the test system is bovine corneas. Nature of the series: Enzymatic digestion (collagenase) test of corneas. The note with it: 24 hours of digestion by collagenases. How it is done:
as §1
as §2, with “control group. […]” for “control group.”

Series [7] deals with bovine corneas. Nature of the series: UV & visible spectrophotometry of corneas. The note with it: PBS, UV (300-400) and visible (400-800); different crosslinking procedures. The protocol: Optical transmission and absorption tests were performed on de-epithelized bovine corneas for the UV and visible light spectrum. Control and crosslinked corneas were submerged in PBS, and their optical transmission was assessed using a UV-Vis. Spectrometer (Edinburgh Instruments Spectrofluorometer FS5). Transmittance spectra (% T) were collected from 300 to 800 nm at 1 nm increments. […] The results are illustrated in FIGS. 7A-7B.

For series [8] the following is noted: obtained from previous literature [15, 16]; cited from earlier work.
For another series, the system named is cornea. The note with it: background, cited from earlier work; for hardness / stiffness of cross-linked cornea: Rose Bengal/Green Light (532 nm) or riboflavin/UV-A.

`O=S(=O)([O-])OOS(=O)(=O)[O-].[Na+].[Na+]` [SPS, sodium persulfate]: the “cytotoxicity influence on viability of cells” value in series [1] is listed as “dose-dependent cytotoxicity”. Further, the “cell death (Annexin V-FITC/PI)” value in the series with LMSCs and HCECs is reported as “higher degree of cell death than ruthenium-SPS treated cells”.

`Cc1cc2nc3c(=O)[nH]c(=O)nc-3n(C[C@H](O)[C@H](O)[C@H](O)COP(=O)(O)O)c2cc1C` [riboflavin, riboflavin 5′-monophosphate]: the average storage modulus with bovine corneas [2] is given as 92.88 kPa. In addition, the “stiffness compared to control” value in the series on bovine corneas [3] (from modulus of elasticity) is reported as “overall increasing stiffness”. Moreover, in the series on bovine corneas [3] (riboflavin-treated), the “increase of modulus of elasticity vs control” value is “approximately 16%” and the “increase of ultimate tensile strength vs control” value is reported as “approximately 16%”. For the same compound, the “strain compared to control” value in the series on bovine corneas [3] (stress-strain test) was “decreasing strain trend”. In addition, the “swelling vs normal corneas” value with bovine corneas [4] is listed as “less swelling”. The average optical transparency in the series on bovine corneas [5] (2 mM riboflavin-based crosslinked corneas, 365 nm) was 0.713±0.222. The “mean distance traveled in the bovine cornea” value in the series on bovine corneas [5] (Lambert-Beer formula applied to optical transmittance results) is given as 719 μm. Besides, the “resistance to enzymatic digestion” value in the series with bovine corneas [6] is given as “digested entirely after 24 hours”. For the same compound, in the series with bovine corneas [7], the “optical absorbance of corneas, change after crosslinking” value is given as “did not change significantly” and the “optical transmission of corneas, change after crosslinking” value is “did not change significantly”. Further, the molar attenuation coefficient in series [8] is 10066 M⁻¹ cm⁻¹. In addition, the “hardness / stiffness of cross-linked cornea” value in the series with cornea is on record as “increased corneal stiffness”. The “healing time of corneal haze, in some eyes” value in the series with cornea (riboflavin/UV-A) is on record as 6-12 months.

With `O=C1OC2(c3cc(I)c(O)c(I)c3Oc3c2cc(I)c(O)c3I)c2c(Cl)c(Cl)c(Cl)c(Cl)c21` [Rose Bengal], the “hardness / stiffness of cross-linked cornea” value in the series with cornea is given as “increased hardness”. The “depth of cross-linking effect” value in the series on cornea (Rose Bengal/Green Light (532 nm)) is “more superficial effect”.
